Assay results reported in patent US10233165B2, “Cyclopropylamine compounds as histone demethylase inhibitors” (IEO—Instituto Europeo di Oncologia S.r.l., priority 2014, dated 2019).
Counter-ions that a name gives are not always drawn. Like-named read-outs stand apart in the source and are kept apart here.

Key:
[1] = tested on: Human leukemia MV4-11 cells; test: Cell growth, CellTiter-Fluor viability assay; type: cell-based; details: 48 h incubation, read-out: IC50 [μM] cell growth inhibitory assay
Excerpt: CellTiter-Flor® (Promega) is a nonlytic, single-reagent-addition fluorescence assay that measures the relative number of living cells in a culture population after experimental manipulation. The CellTiter-Fluor™ Cell Viability Assay measures the conserved and constitutive protease activity within live cells and therefore acts as a marker for cell viability.
Human leukemia MV4-11 cells, (obtained from the Deutsche Sammlung von Mikroorganismen and Zellkulturen, ACC 102) in exponential growth, were incubated for 48 h with different concentrations of the inhibitors (e.g. from 0 to 100 μM). After 48 h a volume of CellTiterFluor® Reagent equal to the volume of cell culture medium was added. The content was mixed and incubates for at least 90 min at 37° C. degree to obtain a stable signal. The fluorescence was recorded using an excitation wavelength of 360 nm and an emission at 535 nm. The IC50 was calculated using GraphPad Software.

Human recombinant MAO A = target: T1, Human recombinant MAO A (Homo sapiens, UniProt P21397); test: Bioluminescent-coupled assay for monoamine oxidases (MAO-Glo), MAO-A; type: biochemical; details: for IC50 (MAO-A)/ IC50 (LSD1): ratio, 15 min preincubation of compound with enzyme
T1 construct: made in house; host or cells: Pichia pastoris
T1 sequence (P21397 1-527): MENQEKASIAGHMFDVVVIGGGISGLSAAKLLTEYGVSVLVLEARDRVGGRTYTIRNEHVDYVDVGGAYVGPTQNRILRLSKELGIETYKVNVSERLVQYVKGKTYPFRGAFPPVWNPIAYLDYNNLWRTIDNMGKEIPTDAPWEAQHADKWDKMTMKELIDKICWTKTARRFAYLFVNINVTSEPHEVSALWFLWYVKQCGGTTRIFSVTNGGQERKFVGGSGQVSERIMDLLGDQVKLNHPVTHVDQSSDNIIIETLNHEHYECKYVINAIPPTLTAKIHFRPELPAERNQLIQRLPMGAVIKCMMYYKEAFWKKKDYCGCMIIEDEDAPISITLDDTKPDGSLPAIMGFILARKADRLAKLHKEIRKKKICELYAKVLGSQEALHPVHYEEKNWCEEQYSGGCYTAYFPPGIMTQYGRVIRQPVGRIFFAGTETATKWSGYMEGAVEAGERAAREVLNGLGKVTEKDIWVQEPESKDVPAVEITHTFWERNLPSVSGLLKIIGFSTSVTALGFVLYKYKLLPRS
Protocol: The MAO-Glo Assay from Promega (cat. V1402, Promega, Madison, Wis.) was used to measure the effect of inhibitors on MAO-A and MAO-B activity.
Human recombinant MAO A and MAO B were expressed in Pichia pastoris and purified as published (Binda C. et al. Proc. Natl. Acad. Sci. USA, 2003, 9750-9755). The assay was performed at RT in 50 μL (25 μL reaction solution+25 μL detection reagent) in 96 well half area white plates (cat. 3693, Corning, Corning, N.Y.). Luminescence was measured after 20 min incubation in the dark using a microplate reader (Infinite F200, Tecan Group, Switzerland) with an integration time of 0.25 s per well.
50 nM MAO-A or 125 nM MAO-B were incubated with five different inhibitor concentrations (from 0.004 μM to 100 μM) for 15 min at RT in Promega MAO Buffer or Promega MAO-B Buffer (MAO-Glo Assay kit, catalogue number V1402, Promega, Madison, Wis.). […] After 30 min of incubation the reaction was stopped with the Promega detection reagent. The experiments were carried out in duplicate. IC50 was calculated using GraphPad Prism version 4.0 (GraphPad Software, San Diego, Calif.).

CD14 mRNA in THP-1 cells [2] = test: THP-1 methylcellulose assay, CD14 mRNA in harvested cells; type: cell-based, human; details: THP-1 cells harvested from methylcellulose, 500 nM inhibitor, 13 days
Protocol: (§1) For this scope THP-1 cells (ACC 16: DSMZ Leibniz Institute DSMZ German collection of Microorganism and cell culture) were plated at cellular density of 50.000 cells/mL and were incubated with the inhibitor at a fixed concentration of 0.1 μM for 5 days. Then, the cells were recovered and mRNA extracted to follow mRNA levels of the macrophage-specific genes CD14. mRNA expression was measured by quantitative RT-PCR (Fast SYBR Green Master mix, Applied Biosystems Foster City, Calif.) using specific primers and normalized against TBP mRNA. […] Primers used in this study were: […]
(§2) THP-1 cells were plated at a density of 250 cells per plate and cultured with the inhibitors at a fixed dose of 500 nM in MethoCult™ H4435 Enriched medium (StemCell Technologies, Vancouver, BC) for 13 days according to the manufacturer instructions. Then, the colony forming potential was scored by direct visualization using an inverted microscope and the percentage of inhibition over the vehicle was assessed. In addition, the cells were harvested and compounds-induced maturation was monitored by changes in the mRNA levels of macrophage-specific genes (CD14) as reported above.

human THP-1 cells = test: THP-1 methylcellulose assay, colony formation; type: cell-based; details: 500 nM inhibitor, 13 days, versus vehicle; for inhibition at 0.5 µM: Homo sapiens, THP-1, 312 h
Protocol: The KDM1A inhibitors were tested for their anti-clonogenic potential on human THP-1 cells (ACC 16: DSMZ Leibniz Institute DSMZ German collection of Microorganism and cell culture).
as §2

CD14 mRNA in THP-1 cells [3] = test: THP-1 target modulation, CD14 mRNA by quantitative RT-PCR; type: cell-based, human; details: 0.1 μM inhibitor, 5 days, normalized against TBP mRNA
Protocol: as §1

[4] = target: T2, human recombinant KDM1A (LSD1)/CoRest complex (Homo sapiens, UniProt O60341); test: Assay of enzyme inhibition of KDM1A (LSD1), Amplex UltraRed/peroxidase; type: biochemical; details: result in words
T2 construct: made in house; host or cells: E. coli
Protocol: The complex of human recombinant KDM1A (LSD1)/CoRest protein was produced in E. coli as separate proteins and co-purified following previously reported procedures (Forneris F. et al. Trends Biochem. Sci. 2008, 33, 181-189; Forneris F. et al. J. Biol. Chem. 2007, 282, 20070-20074). The experiments were performed using a mono-methylated H3-K4 peptide containing 21 amino acids (custom synthesis done by Thermo Scientific) as substrate and in 50 mM TRIS, pH 8.0 and 0.05 mg/ml BSA. The peptide purity was >90% as checked by analytical high-pressure liquid chromatography and mass spectrometry.
The demethylase activity was estimated under aerobic conditions and at RT by measuring the release of H2O2 produced during the catalytic process by the Amplex® UltraRed detection system coupled with peroxidase assay. […] The conversion of the Amplex® Ultra Red reagent to resorufin was monitored in continuous by fluorescence (excitation at 540 nm, emission at 590 nm) using a microplate reader (Infinite 200, Tecan). […] The maximum demethylase activity of KDM1A/CoRest was obtained in the absence of inhibitors and corrected for background fluorescence in the absence of KDM1A/CoRest. The IC50 was calculated using GraphPad Software.

`N[C@@H]1C[C@H]1c1ccc(NC(=O)c2cccc(N3CCOC3=O)c2)cc1` (relative stereo) [Example 3, N-[4-[trans-2-aminocyclopropyl]phenyl]-3-(2-oxooxazolidin-3-yl)benzamide hydrochloride] was tested, and the IC50 ([1]; Homo sapiens) was at most 5 µM, the “IC50 (MAO-A)/ IC50 (LSD1)” value (Human recombinant MAO A; hydrochloride) was 3.30 and the “Colony formation Target Modulation CD14 mRNA expression (Fold increase)” value (CD14 mRNA in THP-1 cells [2]; hydrochloride) was 24.8 Fold increase. The inhibition at 0.5 µM (human THP-1 cells) was 41% and the “Target modulation CD14 mRNA expression (fold increase versus vehicle)” value (CD14 mRNA in THP-1 cells [3]; hydrochloride) was 21.2 fold increase versus vehicle.
`N[C@@H]1C[C@H]1c1ccc(NC(=O)c2ccc(N3CCOCC3)cc2)cc1` (relative stereo) [Example 4, N-[4-[trans-2-aminocyclopropyl]phenyl]-4-morpholino-benzamide Hydrochloride] showed an IC50 ([1]; Homo sapiens) of 5 to 50 µM.
`N[C@@H]1C[C@H]1c1ccc(NC(=O)c2ccc(N3CCOC3=O)cc2)cc1` (relative stereo) [Example 5, N-[4-[trans-2-aminocyclopropyl]phenyl]-4-(2-oxooxazolidin-3-yl)benzamide Hydrochloride] was tested, and the IC50 ([1]; Homo sapiens) was 5 to 50 µM.
In the case of `N[C@@H]1C[C@H]1c1ccc(NC(=O)c2ccccc2)cc1` (relative stereo) [Example 5b, N-[4-[trans-2-aminocyclopropyl]phenyl]benzamide, reference compound], the IC50 ([1]; Homo sapiens) is reported as 50 to 100 µM and the “IC50 (MAO-A)/ IC50 (LSD1)” value (Human recombinant MAO A) is reported as 1.56.
In the case of `N[C@@H]1C[C@H]1c1ccc(NC(=O)c2ccc(-c3ccccc3)cc2)cc1` (relative stereo) [Example 5e, N-[4-[trans-2-aminocyclopropyl]phenyl]-4-phenyl-benzamide, reference compound], the “activity on KDM1A (LSD1)” value [4] is reported as “inactive”, the IC50 ([1]; Homo sapiens) is reported as at most 5 µM and the IC50 (Human recombinant MAO A; 50 nM MAO-A, 15 min preincubation, read-out: MAO-A inhibition IC50) is reported as 0.054 µM. The “Target modulation CD14 mRNA expression (fold increase versus vehicle)” value (CD14 mRNA in THP-1 cells [3]) was 2.2 fold increase versus vehicle.
With `CN1CCN(c2cc(C(=O)Nc3ccc([C@@H]4C[C@H]4N)cc3)ccc2NC(=O)OCc2ccccc2)CC1` (relative stereo) [Example 6, Benzyl N-[4-[[4-[trans-2-aminocyclopropyl]phenyl]carbamoyl]-2-(4-methylpiperazin-1-yl)phenyl]carbamate Dihydrochloride] the IC50 ([1]; Homo sapiens) was at most 5 µM, the “IC50 (MAO-A)/ IC50 (LSD1)” value (Human recombinant MAO A) was 15.3 and the “Target modulation CD14 mRNA expression (fold increase versus vehicle)” value (CD14 mRNA in THP-1 cells [3]) was 13 fold increase versus vehicle.
`CN1CCN(c2ccc(C(=O)Nc3ccc([C@@H]4C[C@H]4N)cc3)cc2NC(=O)OCc2ccccc2)CC1` (relative stereo) [Example 7, Benzyl N-[5-[[4-[(trans-2-aminocyclopropyl]phenyl]carbamoyl]-2-(4-methylpiperazin-1-yl)phenyl]carbamate Dihydrochloride] was tested, and the IC50 ([1]; Homo sapiens) was at most 5 µM and the “IC50 (MAO-A)/ IC50 (LSD1)” value (Human recombinant MAO A) was 11.2.
`N[C@@H]1C[C@H]1c1ccc(NC(=O)c2ccc(N3CCCCC3)c(NC(=O)OCc3ccccc3)c2)cc1` (relative stereo) [Example 8, Benzyl N-[5-[[4-[trans-2-aminocyclopropyl]phenyl]carbamoyl]-2-(1-piperidyl)phenyl]carbamate Hydrochloride] gave an IC50 ([1]; Homo sapiens) of at most 5 µM.
`N[C@@H]1C[C@H]1c1ccc(NC(=O)c2ccc(N3CCOCC3)c(NC(=O)OCc3ccccc3)c2)cc1` (relative stereo) [Example 9, Benzyl N-[5-[[4-[trans-2-aminocyclopropyl]phenyl]carbamoyl]-2-morpholino-phenyl]carbamate hydrochloride] was tested, and the IC50 ([1]; Homo sapiens) was at most 5 µM and the “IC50 (MAO-A)/ IC50 (LSD1)” value (Human recombinant MAO A) was 3.17.
In the case of `N[C@@H]1C[C@H]1c1ccc(NC(=O)c2cccc(N3CCOC3=O)c2)cc1` [Example 11, N-[4-[(1S,2R)-2-aminocyclopropyl]phenyl]-3-(2-oxooxazolidin-3-yl)benzamide Hydrochloride], the IC50 [1] is reported as at most 5 µM, the “IC50 (MAO-A)/ IC50 (LSD1)” value (Human recombinant MAO A; hydrochloride) is reported as 5.93 and the “Colony formation Target Modulation CD14 mRNA expression (Fold increase)” value (CD14 mRNA in THP-1 cells [2]; hydrochloride) is reported as 27.7 Fold increase. The “Colony formation % of Inhibition” value (human THP-1 cells; Hydrochloride, 0.5 µM) was 36.3% and the “Target modulation CD14 mRNA expression (fold increase versus vehicle)” value (CD14 mRNA in THP-1 cells [3]; hydrochloride) was 15.1 fold increase versus vehicle.
In the case of `N[C@H]1C[C@@H]1c1ccc(NC(=O)c2cccc(N3CCOC3=O)c2)cc1` [Example 13, N-[4-[(1R,2S)-2-aminocyclopropyl]phenyl]-3-(2-oxooxazolidin-3-yl)benzamide Hydrochloride], the IC50 ([1]; Homo sapiens) is reported as at most 5 µM, the “IC50 (MAO-A)/ IC50 (LSD1)” value (Human recombinant MAO A) is reported as 2.67 and the “Colony formation Target Modulation CD14 mRNA expression (Fold increase)” value (CD14 mRNA in THP-1 cells [2]) is reported as 6 Fold increase. The inhibition at 0.5 µM (human THP-1 cells) was 19% and the “Target modulation CD14 mRNA expression (fold increase versus vehicle)” value (CD14 mRNA in THP-1 cells [3]) was 3.1 fold increase versus vehicle.
